Data taken from patent US20130197090A1, “POSTURAL STABILITY AND INCIDENT FUNCTIONS IN PATIENTS” (Chelsea Therapeutics, Inc., priority 2012, published 2013).

Tests used:
PD patients [1] = experiment: Patient falls, double-blind placebo-controlled study of Example 2; assay type: in vivo, human
Procedure: A multi-center, double-blind, randomized, placebo-controlled study was carried out to assess the clinical effect of droxidopa for reducing falls in PD patients. The study included a two week double-blind dose-titration period followed by an eight week double-blind treatment period. A screening period (up to 14 days) was used to determine patient eligibility. The patients were then randomized into a treatment group and a placebo group. Patients entered a double-blind titration phase at 100 mg TID of droxidopa or matching placebo. Treatment was escalated in 100 mg TID increments to a maximum of 600 mg TID. Upon completion of the dose titration phase, patients returned for study visits after 1, 2, 4, and 8 weeks of double-blind treatment at their titrated dose. The study included 78 placebo-treated patients and 69 droxidopa-treated patients. […] This is illustrated in FIG. 9.

PD patients [2] = experiment: MDS-UPDRS score, study of Example 1; assay type: in vivo, human; conditions: for MDS-UPDRS, Baseline: before treatment
Procedure: (§1) A multi-center, double-blind, randomized, parallel-group, placebo-controlled study was carried out to assess the clinical effect of droxidopa over the course of 10 weeks for reducing falls in PD patients. The study included a two week double-blind dose-titration period followed by an eight week double-blind treatment period. A screening period (up to 14 days) was used to determine patient eligibility. Throughout the study, visit specific assessments were conducted three hours (an acceptable range was two to five hours) following the patient's first daily dose of droxidopa. Patients who successfully passed all screening assessments continued to the baseline measurements. At the end of the baseline visit, eligible patients were randomized to treatment with either droxidopa or placebo (randomization was double-blind, 1:1). Patients entered a double-blind titration phase at 100 mg TID of droxidopa or matching placebo. Treatment was escalated in 100 mg TID increments to a maximum of 600 mg TID. Upon completion of the dose titration phase, patients returned for a study visit after 8 weeks of double-blind treatment at their titrated dose. The study included 27 placebo-treated patients and 24 droxidopa-treated patients.
(§2) Patients in the study were evaluated using the Hoehn and Yahr rating scale and the Movement Disorder Society-sponsored revised version of the UPDRS to evaluate the effect of treatment as evidenced by these two scales. A baseline score for each patient using each test was established prior to treatment with droxidopa or the placebo, and a post-treatment score for each test was established at the end of the study.
The UPDRS likewise is a useful test for evaluating improvements in symptoms that can be a cause of falls in PD patients since this scale is used to assess the severity of motor and non-motor symptoms in PD patients. In the present study, droxidopa-treated patients experienced a 15.8 point improvement (i.e., decrease) from baseline compared with an 11.4 point improvement in placebo-treated patients. […] The 4.4 point treatment difference favoring droxidopa in the total UPDRS score reflects pronounced improvement in the motor features of PD and mirrors the improvements observed on the Hoehn and Yahr rating scale score.

[3] = system: PD patients suffering from "freezing of gait"; conditions: Narabayashi et al. 1981; cited from earlier work
PD patients [4] = experiment: Hoehn and Yahr rating scale score, study of Example 1; assay type: in vivo, human; conditions: for Hoehn and Yahr, Baseline: before treatment
Procedure: as §1, §2
Since the Hoehn and Yahr rating scale is heavily weighted towards postural instability as the primary index of disease severity, it is believed that the Hoehn and Yahr score serves as a useful measure of the effect of treatment on NOH in a PD patient population. At the end of this study, droxidopa-treated patients experienced, on average, an improvement from baseline (i.e., a reduction in the score) in their Hoehn and Yahr rating scale score (change: −0.4 points) while placebo-treated patients experienced no change from baseline in their Hoehn and Yahr rating scale score, resulting in a notable treatment difference of −0.4 units favoring droxidopa. Based on an analysis of Hoehn and Yahr rating scale scores in individual patients, a higher proportion of droxidopa-treated patients experienced an improvement in their Hoehn and Yahr rating scale score at the end of the study (10 of 24 patients; 42%) compared with placebo-treated patients (5 of 27 patients; 19%). Conversely, a lower proportion of droxidopa-treated patients experienced a worsening in their Hoehn and Yahr rating scale score at the end of the study (3 of 24 patients; 13%) compared with placebo-treated patients (10 of 27 patients; 37%).

PD patients [5] = experiment: Patient-reported falls, double-blind placebo-controlled study of Example 1; assay type: in vivo, human
Procedure: A multi-center, double-blind, randomized, parallel-group, placebo-controlled study was carried out to assess the clinical effect of droxidopa over the course of 10 weeks for reducing falls in PD patients. The study included a two week double-blind dose-titration period followed by an eight week double-blind treatment period. A screening period (up to 14 days) was used to determine patient eligibility. Throughout the study, visit specific assessments were conducted three hours (an acceptable range was two to five hours) following the patient's first daily dose of droxidopa. Patients who successfully passed all screening assessments continued to the baseline measurements. At the end of the baseline visit, eligible patients were randomized to treatment with either droxidopa or placebo (randomization was double-blind, 1:1). Patients entered a double-blind titration phase at 100 mg TID of droxidopa or matching placebo. Treatment was escalated in 100 mg TID increments to a maximum of 600 mg TID. Upon completion of the dose titration phase, patients returned for a study visit after 8 weeks of double-blind treatment at their titrated dose. The study included 27 placebo-treated patients and 24 droxidopa-treated patients. During the study, the placebo-treated patients reported a total of 197 falls compared with 79 falls reported by the droxidopa-treated patients. […] Standardizing the above data to the number of falls per patient per week, patients randomized to the placebo treatment experienced an average of 0.93 falls per patient per week. Patients randomized to the droxidopa treatment experienced an average of 0.39 falls per patient per week. This represents an approximate 60% reduction in the number of falls reported by droxidopa-treated patients compared with placebo-treated patients. […] In the study, it was evident that a number of patients in each group was not normally distributed—i.e., a few patients in each group experienced many more falls than the remaining patients in each respective group. A sensitivity analysis was performed to assess the robustness of the treatment effect in light of this disparity in falls within each group. The beneficial treatment effect favoring droxidopa was evident even when the top two patients or the top five patients who experienced the highest number of falls in each treatment group were removed from the analysis. See FIG. 4 and FIG. 5, respectively. When the top two patients in each treatment group were excluded, patients randomized to the placebo group experienced an average of 0.54 falls per patient per week compared with 0.16 falls per patient per week in patients randomized to the droxidopa group. Similarly, when the top five patients in each treatment group were excluded, patients randomized to the placebo group experienced an average of 0.20 falls per patient per week compared with 0.10 falls per patient per week in patients randomized to the droxidopa group.

MAO-A = molecular target: T1, MAO-A (Homo sapiens, UniProt P21397); conditions: cited from earlier work
T1 sequence (P21397 1-527): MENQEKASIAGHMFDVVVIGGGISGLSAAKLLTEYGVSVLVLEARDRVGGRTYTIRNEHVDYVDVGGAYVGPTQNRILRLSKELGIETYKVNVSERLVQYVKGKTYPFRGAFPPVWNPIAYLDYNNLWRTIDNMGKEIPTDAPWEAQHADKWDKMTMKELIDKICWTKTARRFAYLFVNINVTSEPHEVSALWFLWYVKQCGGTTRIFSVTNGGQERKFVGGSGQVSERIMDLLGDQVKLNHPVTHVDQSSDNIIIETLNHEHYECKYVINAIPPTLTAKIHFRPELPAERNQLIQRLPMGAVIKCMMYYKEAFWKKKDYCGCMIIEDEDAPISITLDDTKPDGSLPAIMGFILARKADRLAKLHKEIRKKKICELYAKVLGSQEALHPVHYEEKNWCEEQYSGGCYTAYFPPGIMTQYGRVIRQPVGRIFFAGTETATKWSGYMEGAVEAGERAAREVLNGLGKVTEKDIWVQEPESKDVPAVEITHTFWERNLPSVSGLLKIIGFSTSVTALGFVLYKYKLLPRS

[6] = patients with recurrent falls, versus placebo

NC(C(=O)O)C(O)c1ccc(O)c(O)c1 (stereo not drawn) [droxidopa, threo-3-(3,4-dihydroxyphenyl) serine]
rate of falls per patient per week (PD patients [1]; 69 droxidopa-treated, 78 placebo-treated patients, titrated 100-600 mg TID): visibly less than in the placebo treatment group
treatment effect on falls, sensitivity analysis (PD patients [1]; top two, top five and top ten patients with highest number of falls in each group removed): beneficial treatment effect favoring droxidopa was again evident
MDS-UPDRS, End of Study (PD patients [2]; Non-recurrent Fallers (n = 15)): 58.1
MDS-UPDRS, Baseline (PD patients [2]; Non-recurrent Fallers (n = 15)): 74.3
MDS-UPDRS, End of Study (PD patients [2]; Recurrent Fallers (n = 9)): 77.7
MDS-UPDRS, Baseline (PD patients [2]; Recurrent Fallers (n = 9)): 89.1
improvement (decrease) from baseline in UPDRS score (PD patients [2]; end of study, all droxidopa-treated patients, placebo 11.4): 15.8 point
improvement in UPDRS score (PD patients [2]; [6]): marked improvement
each of the four components of the UPDRS score (PD patients [2]; versus placebo): showed benefits for droxidopa compared with placebo
treatment difference favoring droxidopa in the total UPDRS score (PD patients [2]; versus placebo): 4.4 point
effect on freezing of gait [3]: a beneficial effect was reported
Hoehn and Yahr, End of Study (PD patients [4]; Non-recurrent Fallers (n = 15)): 1.4
Hoehn and Yahr, Baseline (PD patients [4]; Non-recurrent Fallers (n = 15)): 1.8
Hoehn and Yahr, End of Study (PD patients [4]; Recurrent Fallers (n = 9)): 1.7
Hoehn and Yahr, Baseline (PD patients [4]; Recurrent Fallers (n = 9)): 1.9
Change in Hoehn and Yahr Rating Scale Score: Improved, % (PD patients [4]; end of study, N = 24): 42%
Change in Hoehn and Yahr Rating Scale Score: No Change, % (PD patients [4]; end of study, N = 24): 46%
Change in Hoehn and Yahr Rating Scale Score: Worsened, % (PD patients [4]; end of study, N = 24): 13%
change from baseline in Hoehn and Yahr rating scale score (PD patients [4]; end of study, all droxidopa-treated patients, average, placebo no change): −0.4 points
treatment difference in Hoehn and Yahr rating scale score favoring droxidopa (PD patients [4]; end of study, versus placebo): −0.4 units
improvement in Hoehn and Yahr score (PD patients [4]; [6]): marked improvement
reduction in the number of falls compared with placebo-treated patients (PD patients [5]): ~60%
total number of falls reported during the study (PD patients [5]; 10 weeks, 24 droxidopa-treated patients, titrated 100-600 mg TID, placebo 197): 79 falls
treatment effect on total number of patient falls (PD patients [5]; data from the first 10 days of the study removed): beneficial treatment effect favoring droxidopa on the total number of patient falls remained evident
average falls per patient per week (PD patients [5]; full analysis set, placebo 0.93): 0.39 falls per patient per week
patients who experienced recurrent falls (PD patients [5]; of 24 droxidopa-treated patients, placebo 12 of 27): nine
average falls per patient per week (PD patients [5]; top five patients with highest number of falls in each group excluded, placebo 0.20): 0.10 falls per patient per week
average falls per patient per week (PD patients [5]; top two patients with highest number of falls in each group excluded, placebo 0.54): 0.16 falls per patient per week
cumulative number of patient-recorded falls over time (PD patients [5]; versus placebo): relative increase in the number of falls in the placebo treatment group over time was consistently larger compared with the relative increase over time in the droxidopa treatment group

O=C(NCCN1CCOCC1)c1ccc(Cl)cc1 [moclobemide]
selectivity for MAO-A over MAO-B (MAO-A): approximately three times more selective for MAO-A than MAO-B
